This note sets out measurements from paper PMC12125102, “The “specific” P-glycoprotein inhibitor zosuquidar (LY335979) also weakly inhibits human organic cation transporters” (Naunyn-Schmiedeberg's Archives of Pharmacology, 2024).

This test has as its target T1, OCT1 (organic cation transporter 1) (Homo sapiens, UniProt O15245).
T1 construct: gene SLC22A1
T1 sequence (O15245 1-554): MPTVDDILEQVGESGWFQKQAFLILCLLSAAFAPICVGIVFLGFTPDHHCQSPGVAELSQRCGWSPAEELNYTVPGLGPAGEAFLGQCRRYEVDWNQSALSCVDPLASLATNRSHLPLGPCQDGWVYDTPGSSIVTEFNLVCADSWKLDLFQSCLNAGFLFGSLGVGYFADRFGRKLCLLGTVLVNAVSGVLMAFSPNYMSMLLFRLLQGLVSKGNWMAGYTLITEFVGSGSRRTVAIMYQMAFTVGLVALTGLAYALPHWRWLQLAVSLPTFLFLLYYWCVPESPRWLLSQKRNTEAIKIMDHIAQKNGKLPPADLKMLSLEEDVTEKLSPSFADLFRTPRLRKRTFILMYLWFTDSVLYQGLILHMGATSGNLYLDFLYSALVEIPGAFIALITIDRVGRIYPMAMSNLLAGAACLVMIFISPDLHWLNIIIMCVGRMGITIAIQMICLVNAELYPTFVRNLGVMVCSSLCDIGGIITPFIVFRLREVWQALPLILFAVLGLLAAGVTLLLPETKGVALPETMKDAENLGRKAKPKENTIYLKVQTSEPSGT
In words: inhibition of metformin uptake in HEK293-Flp-In-OCT1 cells, […] min pre-incubation, UPLC-MS/MS. The format is cell-based.

What is called IC50 is the concentration at which inhibition is half-maximal. For the molecule `O[C@@H](COc1cccc2ncccc12)CN1CCN([C@@H]2c3ccccc3[C@@H]3[C@H](c4ccccc42)C3(F)F)CC1` [zosuquidar], the midpoint of inhibition, the IC50, lay at 7.5 ± 3.7 µM.
